From patent publication US10000521B2 (priority 2013, dated 2018)
Entries after “also recorded” stand apart in the source; their conditions may differ.

How the values were obtained:
CD-1 ICR mice = assay: In vivo toxicology assessment
Method: All in vivo toxicology assays were performed with CD-1 ICR mice (female, 4-6 week old; 20-30 gram body weight). Groups of one to five mice were treated at each dose level. In one study, compound 1 was prepared at concentrations ranging from 0.1 mg/mL to 30 mg/mL in dimethyl sulfoxide (DMSO) and 200 μL of each solution was administered via oral gavage to mice at final doses of 0.67, 2.0, 6.7, 20, 67 and 200 mg/kg.
A second study was carried out using a different vehicle. As above, CD-1 ICR mice (female, 4-6 week old; 20-30 gram body weight) were used. Groups of one to five mice were treated at each dose level. Compound 1 was prepared in Formulation I (5% DMSO/10% Solutol/17% (2-Hydroxypropyl)-β-cyclodextrin in aqueous solution) at concentrations ranging from 0.03 mg/mL to 1.0 mg/mL, and administered orally. Briefly, mice were treated with 200 μL of compound 1 in Formulation I via oral gavage at final doses of 2.4 mg/kg and 8.0 mg/kg. In a parallel study, compound 1 was administered intravenously. Briefly, mice were injected with 100 μL of compound 1 in Formulation I at final doses ranging from 0.12 mg/kg to 4.0 mg/kg.

[1] = In vivo pharmacokinetic assessment (LC-MS/MS, plasma and liver); details: mice, oral
Method: All pharmacokinetic studies were performed with CD-1 ICR mice (female, 4-6 week old; 20-30 gram body weight), and three mice were used at each dose level and at each time point for each compound tested. […] Tetrahydrouridine (THU) was immediately added to plasma samples at a final concentration of 25 μg/mL to prevent deamination of dFdC after collection, and the samples were subsequently flash-frozen and stored at −80° C. until analysis. Approximately 200-300 mg of each mouse liver was dissected and homogenized in 150 μL of phosphate buffered saline (PBS) containing 25 μg/mL THU, resulting in 2 mg liver/μL saline homogenate. These liver homogenates were also flash-frozen and stored at −80° C. until analysis. Equivalent amounts of blood plasma and liver tissue were also collected from untreated mice and used to prepare calibration standards and quality controls. An LC-MS/MS assay was utilized to simultaneously quantify the concentrations of compound 1, dFdC and dFdU in each of the plasma and liver samples.

Question: With `O=C(Nc1ccn(C2O[C@H](CO)[C@@H](O)C2(F)F)c(=O)n1)c1ccc2c(c1)OCO2` (stereo partly drawn) [Compound 1, N-(1-((4R,5R)-3,3-difluoro-4-hydroxy-5-(hydroxymethyl)tetrahydrofuran-2-yl)-2-oxo-1,2-dihydropyrimidin-4-yl)benzo[d][1,3]dioxole-5-carboxamide] as the molecule, how does the tolerability / toxicity (CD-1 ICR mice; IV in Formulation I, 0.12 to 4.0 mg/kg, 48 hour observation) read?
Answer: well-tolerated and no toxicity was observed

Question: What about the tolerability / toxicity (CD-1 ICR mice; oral gavage in DMSO, 0.67-200 mg/kg, 24 hour observation) of the same molecule?
Answer: well-tolerated and no toxicity was observed

Question: What about the tolerability / toxicity (CD-1 ICR mice; oral gavage in Formulation I, 2.4 and 8.0 mg/kg, 48 hour observation) of the same molecule?
Answer: well-tolerated and no toxicity was observed

Question: What about the “distribution of gemcitabine produced by hydrolysis, liver versus plasma” value [1] of the same molecule?
Answer: higher concentration in the liver than in plasma

Question: And the “linearity of dFdC exposure vs. compound 1 dosage” value ([1]; 1.0-8.0 mg/kg)?
Answer: linear pharmacokinetics

Question: And the “Liver AUCobs of compound 1” value ([1]; dose 1.0 mg/kg)?
Answer: 1.10 µmol·min/L

Question: And the “Plasma AUCobs of compound 1” value ([1]; dose 1.0 mg/kg)?
Answer: 0.95 µmol·min/L

Question: What about the “Plasma AUCobs of dFdC converted from compound 1” value (from here on “Plasma AUCobs of dFdC converted”) ([1]; dose 1.0 mg/kg) of the same molecule?
Answer: 0.26 µmol·min/L

Question: What about the “Liver AUCobs of compound 1” value ([1]; dose 4.0 mg/kg) of the same molecule?
Answer: 7.84 µmol·min/L

Question: And the “Plasma AUCobs of compound 1” value ([1]; dose 4.0 mg/kg)?
Answer: 3.45 µmol·min/L

Question: And the “Plasma AUCobs of dFdC converted” value ([1]; dose 4.0 mg/kg)?
Answer: 5.03 µmol·min/L

Question: And the “Liver AUCobs of compound 1” value ([1]; dose 8.0 mg/kg)?
Answer: 9.53 µmol·min/L

Question: And the “Plasma AUCobs of compound 1” value ([1]; dose 8.0 mg/kg)?
Answer: 3.71 µmol·min/L

Question: And the “Plasma AUCobs of dFdC converted” value ([1]; dose 8.0 mg/kg)?
Answer: 9.45 µmol·min/L

Question: And the “first-pass metabolism to inactive metabolite dFdU” value ([1]; plasma and liver samples)?
Answer: less of the inactive metabolite dFdU; also recorded: reduced first pass metabolism to the inactive metabolite dFdU
